In the experiment the target is Neuronal acetylcholine receptor alpha3/beta4 (Sus scrofa). Description: Binding affinity to Nicotinic acetylcholine receptor alpha3-beta4 using +/-[3H]epibatidine as radioligand in pig adrenal gland.

pKi: −log10 of the molar value.

As usually defined, the pKi is the negative decadic logarithm of the Ki, by convention in mol/L. A lower pKi goes with a large Ki. Consider `C1=C(c2ccnnc2)C2CC[C@H](CC1)N2` [2-Pyridazin-4-yl-9-aza-bicyclo[4.2.1]non-2-ene], for which the pKi was 8.60. Regarding `C1=C(c2cncnc2)C2CC[C@H](CC1)N2` [2-Pyrimidin-5-yl-9-aza-bicyclo[4.2.1]non-2-ene], the negative logarithm of the Ki (pKi) is 7.70.

The values above are taken from BindingDB's records for doi:10.1021/jm010936y (2002).
